Test results published in patent US12023333B2, “Phenyl-sulfamoyl.benzoyc acids as ERAP1 modulators” (GREY WOLF THERAPEUTICS LIMITED, priority 2019, dated 2024).

Biological target: T1, Purified ERAP1(37-941)-10His (ERAP1) (Homo sapiens, UniProt Q9NZ08)
T1 construct: Purified ERAP1(37-941)-10His (ERAP1); 10His (C)
Assay: ERAP1 mediated hydrolysis of an amide substrate measured in a biochemical system (10-mer decapeptide substrate)
Conditions: 10-mer substrate, 23° C. for 1 h, excitation 279 nm and emission 355 nm; read-out: IC50 vs Decapeptide WRVYEKC(Dnp)ALK-acid (where Dnp is Dinitrophenyl maleimide) (10-mer)
Method in brief: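 ERAP1(37-941)-10His preincubated with compound in 25 mM Bis-tris propane, 0.05% HPMC, pH 7.75, then reacted 1 h at 23 °C with 10-mer WRVYEKC(Dnp)ALK (100 μM solution added in equal volume). Fluorescence read at ex 279/em 355 nm; IC50 from 4-parameter fit.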

T1 sequence (Q9NZ08 37-941): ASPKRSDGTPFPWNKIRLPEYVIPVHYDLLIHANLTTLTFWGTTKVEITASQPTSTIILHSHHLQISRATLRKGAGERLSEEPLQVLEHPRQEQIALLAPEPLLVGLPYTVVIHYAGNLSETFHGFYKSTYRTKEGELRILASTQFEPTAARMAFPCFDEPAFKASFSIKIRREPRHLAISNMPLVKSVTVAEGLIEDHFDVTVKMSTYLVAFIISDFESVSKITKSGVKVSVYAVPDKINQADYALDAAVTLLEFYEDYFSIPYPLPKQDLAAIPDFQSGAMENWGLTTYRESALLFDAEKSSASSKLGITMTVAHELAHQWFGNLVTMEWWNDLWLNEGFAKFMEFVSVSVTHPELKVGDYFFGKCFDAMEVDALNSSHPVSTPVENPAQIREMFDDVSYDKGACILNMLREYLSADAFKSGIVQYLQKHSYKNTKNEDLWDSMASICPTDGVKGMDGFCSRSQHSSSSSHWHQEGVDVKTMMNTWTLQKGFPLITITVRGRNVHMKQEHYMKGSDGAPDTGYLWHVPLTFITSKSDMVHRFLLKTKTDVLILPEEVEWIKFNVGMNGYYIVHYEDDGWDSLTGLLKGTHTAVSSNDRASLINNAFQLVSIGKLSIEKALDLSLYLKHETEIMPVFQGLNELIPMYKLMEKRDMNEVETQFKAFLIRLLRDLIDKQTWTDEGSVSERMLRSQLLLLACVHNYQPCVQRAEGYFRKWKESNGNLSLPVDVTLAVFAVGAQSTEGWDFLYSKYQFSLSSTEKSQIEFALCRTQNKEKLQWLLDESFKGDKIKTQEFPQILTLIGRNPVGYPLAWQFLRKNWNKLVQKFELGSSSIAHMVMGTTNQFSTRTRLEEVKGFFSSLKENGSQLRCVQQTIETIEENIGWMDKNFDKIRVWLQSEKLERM

Row | SMILES | IC50 [µM]
1 | O=C(O)c1ccc(C2CC2)c(S(=O)(=O)Nc2cc(C(F)(F)F)ccc2-c2ccc(C3CC3)s2)c1 [Example 114, 4-cyclopropyl-3-(N-(2-(5-cyclopropylthiophen-2-yl)-5-(trifluoromethyl)phenyl)sulfamoyl)benzoic acid] | < 0.5
2 | CS(=O)(=O)c1ccc(-c2ccc(C3CC3)s2)c(NS(=O)(=O)c2cc(C(=O)O)ccc2C2CC2)c1 [Example 115, 4-cyclopropyl-3-(N-(2-(5-cyclopropylthiophen-2-yl)-5-(methylsulfonyl)phenyl)sulfamoyl)benzoic acid] | < 0.5
3 | COc1ccc(C(=O)O)cc1S(=O)(=O)Nc1cc(C(F)(F)F)ccc1-c1ccc(F)s1 [Example 117, 3-(N-(2-(5-fluorothiophen-2-yl)-5-(trifluoromethyl)phenyl)sulfamoyl)-4-methoxybenzoic acid] | < 0.5
4 | CCc1ccc(C(=O)O)cc1S(=O)(=O)Nc1cc(C#N)ccc1-c1ccc(C#N)s1 [Example 118, 3-(N-(5-cyano-2-(5-cyanothiophen-2-yl)phenyl)sulfamoyl)-4-ethylbenzoic acid] | < 0.5
5 | COc1ccc(C(=O)O)cc1S(=O)(=O)Nc1cc(C#N)ccc1-c1ccc(C#N)s1 [Example 119, 3-(N-(5-cyano-2-(5-cyanothiophen-2-yl)phenyl)sulfamoyl)-4-methoxybenzoic acid] | < 0.5
6 | CCc1ccc(C(=O)O)cc1S(=O)(=O)Nc1cc(S(C)(=O)=O)ccc1-c1ccc(C#N)s1 [Example 120, 3-(N-(2-(5-cyanothiophen-2-yl)-5-(methylsulfonyl)phenyl)sulfamoyl)-4-ethylbenzoic acid] | < 0.5
7 | COc1ccc(C(=O)O)cc1S(=O)(=O)Nc1cc(C#N)ccc1-n1cccc1 [Example 121, 3-(N-(5-cyano-2-(pyrrol-1-yl)phenyl)sulfamoyl)-4-methoxybenzoic acid] | < 0.5
8 | COc1ccc(C(=O)O)cc1S(=O)(=O)Nc1cc(C(F)(F)F)ccc1-c1ccc(C#N)s1 [Example 125, 3-(N-(2-(5-cyanothiophen-2-yl)-5-(trifluoromethyl)phenyl)sulfamoyl)-4-methoxybenzoic acid] | < 0.5
9 | CCc1ccc(C(=O)O)cc1S(=O)(=O)Nc1cc(C(F)(F)F)ccc1-c1nccs1 [Example 128, 4-ethyl-3-(N-(2-(thiazol-2-yl)-5-(trifluoromethyl)phenyl)sulfamoyl)benzoic acid] | < 0.5
10 | CCc1ccc(C(=O)O)cc1S(=O)(=O)Nc1cc(C(F)(F)F)ccc1-c1cncs1 [Example 129, 4-ethyl-3-(N-(2-(thiazol-5-yl)-5-(trifluoromethyl)phenyl)sulfamoyl)benzoic acid] | < 0.5
11 | CCc1ccc(C(=O)O)cc1S(=O)(=O)Nc1cc(C(F)(F)F)c(F)cc1-n1cccc1 [Example 130, 4-ethyl-3-(N-(4-fluoro-2-(pyrrol-1-yl)-5-(trifluoromethyl)phenyl)sulfamoyl)benzoic acid] | < 0.5
12 | CCc1ccc(C(=O)O)cc1S(=O)(=O)Nc1cc(C(F)(F)F)c(Cl)cc1-n1cccc1 [Example 131, 3-(N-(4-chloro-2-(pyrrol-1-yl)-5-(trifluoromethyl)phenyl)sulfamoyl)-4-ethylbenzoic acid] | < 0.5

Further lines, results first:

Row | IC50 [µM] | SMILES
13 | < 0.5 | N#Cc1ccc(-c2ccc(Cl)s2)c(NS(=O)(=O)c2cc(C(=O)O)ccc2C2CC2)c1 [Example 111, 3-(N-(2-(5-chlorothiophen-2-yl)-5-cyanophenyl)sulfamoyl)-4-cyclopropylbenzoic acid]
14 | < 0.5 | COc1ccc(C(=O)O)cc1S(=O)(=O)Nc1cc(C#N)c(F)cc1-c1cccc(F)c1 [Example 112, 3-(N-(4-cyano-3′,5-difluoro-[1,1′-biphenyl]-2-yl)sulfamoyl)-4-methoxybenzoic acid]
15 | < 0.5 | O=C(O)c1ccc(C2CC2)c(S(=O)(=O)Nc2cc(C(F)(F)F)ccc2-c2ccc(Cl)s2)c1 [Example 113, 3-(N-(2-(5-chlorothiophen-2-yl)-5-(trifluoromethyl)phenyl)sulfamoyl)-4-cyclopropylbenzoic acid]
16 | < 0.5 | CS(=O)(=O)c1ccc(-c2ccc(F)s2)c(NS(=O)(=O)c2cc(C(=O)O)ccc2C2CC2)c1 [Example 116, 4-cyclopropyl-3-(N-(2-(5-fluorothiophen-2-yl)-5-(methylsulfonyl)-phenyl)sulfamoyl)benzoic acid]
17 | < 0.5 | O=C(O)c1ccc(C2CC2)c(S(=O)(=O)Nc2cc(C(F)(F)F)ccc2-c2ccc(F)s2)c1 [Example 122, 4-cyclopropyl-3-(N-(2-(5-fluorothiophen-2-yl)-5-(trifluoromethyl)phenyl)sulfamoyl)benzoic acid]
18 | < 0.5 | CS(=O)(=O)c1ccc(-c2ccc(Cl)s2)c(NS(=O)(=O)c2cc(C(=O)O)ccc2C2CC2)c1 [Example 123, 3-(N-(2-(5-chlorothiophen-2-yl)-5-(methylsulfonyl)phenyl)sulfamoyl)-4-cyclopropylbenzoic acid]
19 | < 0.5 | CS(=O)(=O)c1ccc(-c2ccc(C#N)s2)c(NS(=O)(=O)c2cc(C(=O)O)ccc2C2CC2)c1 [Example 124, 3-(N-(2-(5-cyanothiophen-2-yl)-5-(methylsulfonyl)phenyl)sulfamoyl)-4-cyclopropylbenzoic acid]
20 | < 0.5 | N#Cc1ccc(-c2ccc(C#N)s2)c(NS(=O)(=O)c2cc(C(=O)O)ccc2C2CC2)c1 [Example 126, 3-(N-(5-cyano-2-(5-cyanothiophen-2-yl)phenyl)sulfamoyl)-4-cyclopropylbenzoic acid]
21 | < 0.5 | N#Cc1ccc(-c2ccc(C(F)(F)F)cc2NS(=O)(=O)c2cc(C(=O)O)ccc2C2CC2)s1 [Example 127, 3-(N-(2-(5-cyanothiophen-2-yl)-5-(trifluoromethyl)phenyl)sulfamoyl)-4-cyclopropylbenzoic acid]
22 | < 0.5 | N#Cc1cc(NS(=O)(=O)c2cc(C(=O)O)ccc2C2CC2)c(-c2ccccn2)cc1Cl [Example 132, 3-(N-(4-chloro-5-cyano-2-(pyridin-2-yl)phenyl)sulfamoyl)-4-cyclopropylbenzoic acid]
23 | < 0.5 | N#Cc1cc(NS(=O)(=O)c2cc(C(=O)O)ccc2C2CC2)c(-c2cccc(F)c2)cc1Cl [Example 133, 3-(N-(5-chloro-4-cyano-3′-fluoro-[1,1′-biphenyl]-2-yl)sulfamoyl)-4-cyclopropylbenzoic acid]
24 | < 0.5 | N#Cc1cc(NS(=O)(=O)c2cc(C(=O)O)ccc2C2CC2)c(-c2ccc(Cl)s2)cc1Cl [Example 134, 3-(N-(4-chloro-2-(5-chlorothiophen-2-yl)-5-cyanophenyl)sulfamoyl)-4-cyclopropylbenzoic acid]
25 | < 0.5 | O=C(O)c1ccc(C2CC2)c(S(=O)(=O)Nc2cc(-c3ccns3)ccc2-c2ccccc2)c1 [Example 135, 4-cyclopropyl-3-(N-(4-(isothiazol-5-yl)-[1,1′-biphenyl]-2-yl)sulfamoyl)benzoic acid]
26 | < 0.5 | Cc1sncc1-c1ccc(-c2cccc(F)c2)c(NS(=O)(=O)c2cc(C(=O)O)ccc2C2CC2)c1 [Example 136, 4-cyclopropyl-3-(N-(3′-fluoro-4-(5-methylisothiazol-4-yl)-[1,1′-biphenyl]-2-yl)sulfamoyl)benzoic acid]
27 | < 0.5 | O=C(O)c1ccc(C2CC2)c(S(=O)(=O)Nc2cc(-c3ccns3)ccc2-c2cccc(F)c2)c1 [Example 137, 4-cyclopropyl-3-(N-(3′-fluoro-4-(isothiazol-5-yl)-[1,1′-biphenyl]-2-yl)sulfamoyl)benzoic acid]
